Experimental data from patent US9376436B2, “2-(pyridin-2yl)-1, 7-diaza-spiro [4.4] nonane-6-one compound as voltage-gated sodium channels modulators” (CONVERGENCE PHARMACEUTICALS LIMITED, priority 2011, dated 2016).
Counter-ions that a name gives are not always drawn. Like-named read-outs stand apart in the source and are kept apart here.

Biological target: T1, hNaV1.7 (Homo sapiens, UniProt Q15858)
T1 construct: expressed in transfected cells; host or cells: HEK293
Assay: QPatch NaV1.7 assay (whole-cell patch clamp, QPatch16x)
Type: cell-based
Settings: HEK293-hNaV1.7 cells
Method: The compounds of the invention were tested in a QPatch NaV1.7 assay.
HEK293-hNaV1.7 cells were grown in DMEM-F12+10% FBS culture media at 37° C. At a confluency of 50-70% cells were dissociated from culture flasks & triturated to ensure unicellular cell suspension; cell density was measured & adjusted to 2-3×10^6 cells/ml. Recordings were obtained using QPatch16x. The external solution was (in mM): NaCl, 128; KCl, 5; MgCl2, 2; CaCl2, 2; Glucose, 30; HEPES, 15; pH 7.3, 305-315 mOsm. Following seal formation and whole-cell access using internal solution (containing in mM: CsF, 135; EGTA/CsOH, 1/5; HEPES 10; NaCl, 10; pH 7.3, 310-320 mOsM), voltage pulse protocols were applied. Initially a steady state inactivation voltage protocol was used to determine the half-maximal voltage for steady state inactivation (V1/2 SSI). Two holding voltages were used to determine test drug inhibition: −90 mV, where most of the channels are in a closed state; and V1/2 SSI, where half of the channels are inactivated. Currents were elicited […] by stepping to a membrane potential of 0 mV for 20 ms. Four-point cumulative concentration responses were derived by determining the peak current amplitude at each concentration of test drug over 120 second application. Curves were fitted with the Hill equation yielding pIC50 values at −90 mV and V1/2 SSI holding potentials.

[1] = holding voltage V1/2 SSI (half of channels inactivated), read-out: QP Nav1.7 SSI vhalf pIC50 (converted)
[2] = holding voltage −90 mV (most channels closed), read-out: QP Nav1.7 −90 mV pIC50 (converted)

T1 sequence (Q15858 whole entry): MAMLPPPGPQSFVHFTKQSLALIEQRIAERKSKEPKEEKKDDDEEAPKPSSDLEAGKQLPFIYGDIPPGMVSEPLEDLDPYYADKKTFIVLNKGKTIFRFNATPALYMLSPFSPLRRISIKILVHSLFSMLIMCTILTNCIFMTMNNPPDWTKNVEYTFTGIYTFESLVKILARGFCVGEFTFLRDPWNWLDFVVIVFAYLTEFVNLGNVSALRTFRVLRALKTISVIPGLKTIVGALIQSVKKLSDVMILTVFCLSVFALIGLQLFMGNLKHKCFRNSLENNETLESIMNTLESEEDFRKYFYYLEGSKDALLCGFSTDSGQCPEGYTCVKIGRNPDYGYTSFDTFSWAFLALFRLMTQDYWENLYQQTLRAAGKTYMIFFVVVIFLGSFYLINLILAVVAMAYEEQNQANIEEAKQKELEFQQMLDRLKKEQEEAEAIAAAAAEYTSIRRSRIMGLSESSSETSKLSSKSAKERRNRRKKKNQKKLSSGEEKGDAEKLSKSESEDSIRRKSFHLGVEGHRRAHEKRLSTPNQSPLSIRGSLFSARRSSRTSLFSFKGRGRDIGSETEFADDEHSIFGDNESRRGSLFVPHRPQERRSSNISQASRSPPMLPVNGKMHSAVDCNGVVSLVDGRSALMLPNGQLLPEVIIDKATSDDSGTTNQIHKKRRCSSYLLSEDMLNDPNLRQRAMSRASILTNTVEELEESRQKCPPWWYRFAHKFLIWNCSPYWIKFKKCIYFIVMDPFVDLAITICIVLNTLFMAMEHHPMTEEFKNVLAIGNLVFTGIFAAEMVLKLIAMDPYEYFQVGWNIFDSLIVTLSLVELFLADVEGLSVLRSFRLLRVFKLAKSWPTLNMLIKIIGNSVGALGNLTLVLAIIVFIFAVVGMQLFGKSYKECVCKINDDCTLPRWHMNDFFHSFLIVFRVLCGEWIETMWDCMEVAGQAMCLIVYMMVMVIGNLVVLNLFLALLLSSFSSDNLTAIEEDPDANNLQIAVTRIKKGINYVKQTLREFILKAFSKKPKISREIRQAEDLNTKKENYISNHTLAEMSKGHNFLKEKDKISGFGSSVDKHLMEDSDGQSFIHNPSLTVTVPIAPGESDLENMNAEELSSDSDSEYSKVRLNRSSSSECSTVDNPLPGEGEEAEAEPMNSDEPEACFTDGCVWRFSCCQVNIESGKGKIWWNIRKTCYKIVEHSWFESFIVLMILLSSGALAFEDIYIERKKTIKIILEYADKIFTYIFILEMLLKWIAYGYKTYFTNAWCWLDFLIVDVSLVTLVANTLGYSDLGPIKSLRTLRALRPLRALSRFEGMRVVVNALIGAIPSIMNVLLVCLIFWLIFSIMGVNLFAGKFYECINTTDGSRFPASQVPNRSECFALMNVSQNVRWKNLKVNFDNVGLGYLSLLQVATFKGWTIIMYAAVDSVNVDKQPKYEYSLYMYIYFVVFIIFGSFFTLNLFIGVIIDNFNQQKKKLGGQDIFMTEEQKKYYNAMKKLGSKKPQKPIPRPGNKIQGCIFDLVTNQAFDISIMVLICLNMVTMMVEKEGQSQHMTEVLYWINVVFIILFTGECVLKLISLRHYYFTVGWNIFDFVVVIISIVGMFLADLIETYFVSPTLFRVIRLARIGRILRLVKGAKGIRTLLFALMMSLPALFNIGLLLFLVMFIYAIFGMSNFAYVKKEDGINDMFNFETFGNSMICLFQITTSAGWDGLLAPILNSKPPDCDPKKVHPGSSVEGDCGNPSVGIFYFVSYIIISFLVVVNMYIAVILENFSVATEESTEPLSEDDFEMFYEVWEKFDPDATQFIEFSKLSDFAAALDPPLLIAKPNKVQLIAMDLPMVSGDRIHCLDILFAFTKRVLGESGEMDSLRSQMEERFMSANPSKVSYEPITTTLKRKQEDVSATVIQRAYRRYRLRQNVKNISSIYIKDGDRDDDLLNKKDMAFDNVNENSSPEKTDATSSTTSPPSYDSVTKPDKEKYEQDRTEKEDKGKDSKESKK

CC1(C)C[C@]2(CC[C@@H](c3cc(-c4ccc(C(F)(F)F)cc4)ccn3)N2)C(=O)N1 [Example 47, (2S,5R)-8,8-Dimethyl-2-[4-[4-(trifluoromethyl)phenyl]-2-pyridyl]-1,7-diazaspiro[4.4]nonan-6-one hydrochloride]
IC50 [1]: 12.6 µM | IC50 [2]: 31.6 µM

O=C1NCCC[C@@]12CC[C@@H](c1cc(-c3ccc(C(F)(F)F)cc3)ccn1)N2 [Example 48, (2S,5R)-2-[4-(4-Trifluoromethyl-phenyl)-pyridin-2-yl]-1,7-diaza-spiro[4.5]decan-6-one hydrochloride]
IC50 [1]: 2 µM | IC50 [2]: 25.1 µM

O=C1NCCC[C@@]12CC[C@H](c1cc(-c3ccc(C(F)(F)F)cc3)ccn1)N2 [Example 49, (2R,5R)-2-[4-(4-Trifluoromethyl-phenyl)-pyridin-2-yl]-1,7-diaza-spiro[4.5]decan-6-one hydrochloride]
IC50 [1]: 3.98 µM | IC50 [2]: 50.1 µM

O=C1NCCC[C@]12CC[C@H](c1cc(-c3ccc(C(F)(F)F)cc3)ccn1)N2 [Example 50, (2R,5S)-2-[4-(4-Trifluoromethyl-phenyl)-pyridin-2-yl]-1,7-diaza-spiro[4.5]decan-6-one hydrochloride]
IC50 [1]: 0.251 µM | IC50 [2]: 2.51 µM

O=C1NCCC[C@]12CC[C@@H](c1cc(-c3ccc(C(F)(F)F)cc3)ccn1)N2 [Example 51, (25,5S)-2-[4-(4-Trifluoromethyl-phenyl)-pyridin-2-yl]-1,7-diaza-spiro[4.5]decan-6-one hydrochloride]
IC50 [1]: 5.01 µM | IC50 [2]: 25.1 µM

CN1CC[C@@]2(CC[C@H](c3cc(-c4ccc(C(F)(F)F)cc4)ccn3)N2)C1=O [Example 52, (2R,5S)-7-Methyl-2-[4-(4-trifluoromethyl-phenyl)-pyridin-2-yl]-1,7-diaza-spiro[4.4]nonan-6-one hydrochloride]
IC50 [1]: 6.31 µM | IC50 [2]: 25.1 µM

CN1CC[C@@]2(CC[C@@H](c3cc(-c4ccc(C(F)(F)F)cc4)ccn3)N2)C1=O [Example 53, (2S,5S)-7-Methyl-2-[4-(4-trifluoromethyl-phenyl)-pyridin-2-yl]-1,7-diaza-spiro[4.4]nonan-6-one hydrochloride]
IC50 [1]: 39.8 µM | IC50 [2]: 100 µM

CN1CC[C@]2(CC[C@@H](c3cc(-c4ccc(C(F)(F)F)cc4)ccn3)N2)C1=O [Example 54, (2S,5R)-7-Methyl-2-[4-(4-trifluoromethyl-phenyl)-pyridin-2-yl]-1,7-diaza-spiro[4.4]nonan-6-one hydrochloride]
IC50 [1]: 39.8 µM | IC50 [2]: 63.1 µM

CN1CC[C@]2(CC[C@H](c3cc(-c4ccc(C(F)(F)F)cc4)ccn3)N2)C1=O [Example 55, (2R,5R)-7-Methyl-2-[4-(4-trifluoromethyl-phenyl)-pyridin-2-yl]-1,7-diaza-spiro[4.4]nonan-6-one hydrochloride]
IC50 [1]: 20 µM | IC50 [2]: 100 µM

Cc1cc(-c2ccc(F)cc2)cc([C@@H]2CC[C@]3(CCN(C)C3=O)N2)n1 [Example 56, (2S,5R)-2-[4-(4-Fluorophenyl)-6-methyl-2-pyridyl]-7-methyl-1,7-diazaspiro[4.4]nonan-6-one hydrochloride]
IC50 [1]: 10 µM | IC50 [2]: 79.4 µM

Cc1cc(-c2ccc(F)cc2)cc([C@H]2CC[C@@]3(CCN(C)C3=O)N2)n1 [Example 57, (2R,5S)-2-[4-(4-Fluorophenyl)-6-methyl-2-pyridyl]-7-methyl-1,7-diazaspiro[4.4]nonan-6-one hydrochloride]
IC50 [1]: 3.98 µM | IC50 [2]: 79.4 µM

CN1CC[C@@]2(CC[C@H](c3cc(-c4ccc(C(F)(F)F)cc4)c(F)cn3)N2)C1=O [Example 58, (2R,5S)-2-[5-Fluoro-4-[4-(trifluoromethyl)phenyl]-2-pyridyl]-7-methyl-1,7-diazaspiro[4.4]nonan-6-one hydrochloride]
IC50 [1]: 1.26 µM | IC50 [2]: 63.1 µM

CN1CC[C@@]2(CC[C@@H](c3cc(-c4ccc(C(F)(F)F)cc4)c(F)cn3)N2)C1=O [Example 59, (2S,5S)-2-[5-Fluoro-4-[4-(trifluoromethyl)phenyl]-2-pyridyl]-7-methyl-1,7-diazaspiro[4.4]nonan-6-one hydrochloride]
IC50 [1]: 3.16 µM | IC50 [2]: 100 µM

CN1CC[C@]2(CC[C@@H](c3cc(-c4ccc(C(F)(F)F)cc4)c(F)cn3)N2)C1=O [Example 60, (2S,5R)-2-[5-Fluoro-4-[4-(trifluoromethyl)phenyl]-2-pyridyl]-7-methyl-1,7-diazaspiro[4.4]nonan-6-one hydrochloride]
IC50 [1]: 3.98 µM | IC50 [2]: 79.4 µM

CN1CC[C@]2(CC[C@H](c3cc(-c4ccc(C(F)(F)F)cc4)c(F)cn3)N2)C1=O [Example 61, (2R,5R)-2-[5-Fluoro-4-[4-(trifluoromethyl)phenyl]-2-pyridyl]-7-methyl-1,7-diazaspiro[4.4]nonan-6-one hydrochloride]
IC50 [1]: 6.31 µM | IC50 [2]: 100 µM

CN1CC[C@@]2(CC[C@H](c3cc(-c4ccc(C(F)(F)F)cc4)c(OC(C)(C)C)cn3)N2)C1=O [Example 62, (2R,5S)-2-[5-tert-Butoxy-4-[4-(trifluoromethyl)-phenyl]-2-pyridyl]-7-methyl-1,7-diazaspiro[4.4]nonan-6-one hydrochloride]
IC50 [1]: 2 µM | IC50 [2]: 79.4 µM

CN1CC[C@@]2(CC[C@@H](c3cc(-c4ccc(C(F)(F)F)cc4)c(OC(C)(C)C)cn3)N2)C1=O [Example 63, (2S,5S)-2-[5-tert-Butoxy-4-[4-(trifluoromethyl)-phenyl]-2-pyridyl]-7-methyl-1,7-diazaspiro[4.4]nonan-6-one hydrochloride]
IC50 [1]: 10 µM | IC50 [2]: 79.4 µM

CN1CC[C@]2(CC[C@@H](c3cc(-c4ccc(C(F)(F)F)cc4)c(OC(C)(C)C)cn3)N2)C1=O [Example 64, (2S,5R)-2-[5-tert-Butoxy-4-[4-(trifluoromethyl)-phenyl]-2-pyridyl]-7-methyl-1,7-diazaspiro[4.4]nonan-6-one hydrochloride]
IC50 [1]: 3.16 µM | IC50 [2]: 50.1 µM

CN1CC[C@]2(CC[C@H](c3cc(-c4ccc(C(F)(F)F)cc4)c(OC(C)(C)C)cn3)N2)C1=O [Example 65, (2R,5R)-2-[5-tert-Butoxy-4-[4-(trifluoromethyl)-phenyl]-2-pyridyl]-7-methyl-1,7-diazaspiro[4.4]nonan-6-one hydrochloride]
IC50 [1]: 1.58 µM | IC50 [2]: 31.6 µM

CN1CC[C@@]2(CC[C@H](c3cc(-c4ccc(F)cc4)ccn3)N2)C1=O [Example 66, (2R,5S)-2-[4-(4-Fluorophenyl)-2-pyridyl]-7-methyl-1,7-diazaspiro[4.4]nonan-6-one hydrochloride]
IC50 [1]: 10 µM | IC50 [2]: 126 µM

CN1CCC[C@@]2(CC[C@H](c3cc(-c4ccc(C(F)(F)F)cc4)ccn3)N2)C1=O [Example 67, (2R,5R)-7-Methyl-2-[4-(4-trifluoromethyl-phenyl)-pyridin-2-yl]-1,7-diaza-spiro[4.5]decan-6-one hydrochloride]
IC50 [1]: 3.98 µM | IC50 [2]: 31.6 µM

CN1CCC[C@@]2(CC[C@@H](c3cc(-c4ccc(C(F)(F)F)cc4)ccn3)N2)C1=O [Example 68, (2S,5R)-7-Methyl-2-[4-(4-trifluoromethyl-phenyl)-pyridin-2-yl]-1,7-diaza-spiro[4.5]decan-6-one hydrochloride]
IC50 [1]: 5.01 µM | IC50 [2]: 25.1 µM

CN1CCC[C@]2(CC[C@@H](c3cc(-c4ccc(C(F)(F)F)cc4)ccn3)N2)C1=O [Example 69, (2S,5S)-7-Methyl-2-[4-(4-trifluoromethyl-phenyl)-pyridin-2-yl]-1,7-diaza-spiro[4.5]decan-6-one hydrochloride]
IC50 [1]: 7.94 µM | IC50 [2]: 31.6 µM

CN1CCC[C@]2(CC[C@H](c3cc(-c4ccc(C(F)(F)F)cc4)ccn3)N2)C1=O [Example 70, (2R,5S)-7-Methyl-2-[4-(4-trifluoromethyl-phenyl)-pyridin-2-yl]-1,7-diaza-spiro[4.5]decan-6-one hydrochloride]
IC50 [1]: 1 µM | IC50 [2]: 12.6 µM

CN1CCC[C@@]2(CC[C@H](c3cc(-c4ccc(F)cc4)ccn3)N2)C1=O [Example 71, (2R,5R)-2-[4-(4-Fluoro-phenyl)-pyridin-2-yl]-7-methyl-1,7-diaza-spiro[4.5]decan-6-one hydrochloride]
IC50 [1]: 20 µM | IC50 [2]: 126 µM

CN1CCC[C@@]2(CC[C@@H](c3cc(-c4ccc(F)cc4)ccn3)N2)C1=O [Example 72, (2S,5R)-2-[4-(4-Fluoro-phenyl)-pyridin-2-yl]-7-methyl-1,7-diaza-spiro[4.5]decan-6-one hydrochloride]
IC50 [1]: 20 µM | IC50 [2]: 158 µM

CN1CCC[C@]2(CC[C@@H](c3cc(-c4ccc(F)cc4)ccn3)N2)C1=O [Example 73, (2S,5S)-2-[4-(4-Fluoro-phenyl)-pyridin-2-yl]-7-methyl-1,7-diaza-spiro[4.5]decan-6-one hydrochloride]
IC50 [1]: 20 µM | IC50 [2]: 200 µM

CN1CCC[C@]2(CC[C@H](c3cc(-c4ccc(F)cc4)ccn3)N2)C1=O [Example 74, (2R,5S)-2-[4-(4-Fluoro-phenyl)-pyridin-2-yl]-7-methyl-1,7-diaza-spiro[4.5]decan-6-one hydrochloride]
IC50 [1]: 7.94 µM | IC50 [2]: 63.1 µM
